Source: paper PMC8042380, “Brusatol Derivative–34 Attenuates Allergic Airway Inflammation Via Inhibition of the Spleen Tyrosine Kinase Pathway” (Frontiers in Pharmacology, 2021)

Biological target: Spleen tyrosine kinase (Syk) (Homo sapiens, UniProt P43405)
Assay: ADP-Glo kinase assay with purified active Syk (Promega Syk Kinase Enzyme System V3801), Poly E4Y1 substrate, ATP
Type: biochemical

With `COC(=O)[C@@]12OC[C@@]34C(CC5C(C)=C(OC(=O)CCC(=O)OCCCCOc6no[n+]([O-])c6S(=O)(=O)c6ccccc6)C(=O)C[C@]5(C)C3[C@@H](O)[C@@H]1O)OC(=O)[C@H](OC(=O)C=C(C)C)C42` (stereo partly shown) [Bru-34, Brusatol derivative-34] as the compound, how does the IC50 read?
The IC50 was 540 nM.
